Like-named read-outs stand apart in the source and are kept apart here.
Legend:
[1] = Conversion rate (CR) assay with fluorescamine; format: physicochemical
How it was run: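 β-sheet content came from ATR FT-IR spectra of lyophilized 1 mg/mL nanofibril solution (64 scans, 2 cm^-1 resolution). Conversion was measured by separating free monomer with a 3 kDa cutoff filter, then comparing fluorescamine fluorescence (ex 365/em 470 nm, 20 min RT) of filtrate versus unfiltered sample, in triplicate.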

[2] = Aggregate analysis by widefield fluorescence microscopy; format: physicochemical
Protocol: 4 µL of 1 mg/mL peptide fibrils solution is added to a 20 µL, 50 µM ThT–solution in PBS. The mixture is incubated for 15 min at RT to allow binding of ThT dye with β–sheet rich structures. For reference PBS (4 µL) was added instead of peptide fibril solution. The samples were placed in black UV Star® 384 microliter well–plates (Greiner bio–one). Fluorescence spectra were recorded on an Infinite® M1000 PRO microplate reader (Tecan) at λem = 488 nm upon excitation at λex = 440 nm with 10 nm bandwidths and multiple reads per well (3×3). Measurements were repeated in triplicates and averaged with standard deviation. A peptide fibril was considered as ThT-active if the fluorescence intensity was at least twice as strong compared to the control (PBS containing 10% DMSO). Zeta-Potential. For the determination of the surface charge of aggregated peptides zeta-potential measurements were conducted with a Zetasizer Nano ZS, Malvern Instruments. Unless stated otherwise the peptides were dissolved from DMSO (10 mg/mL) in PBS (pH 7.4) to concentration of 1 mg/mL and incubated for 1d at RT. Just before the measurement the 60 µL of the peptides were further diluted in 600 µL KCl (aq, 1 mM) in a 1 mL disposable folded capillary cells (DTS–1060, Zetasizer Nano series, Malvern). The zeta potential of the peptides was derived from the electrophoretic mobility based on the Smoluchowski formula. All measurements were averaged over two individually performed experiments and conducted in triplicates for each sample. Aggregate analysis. […] Furthermore, fluorescence microscopy was conducted by staining 1 µL preformed fibrils (1 mg/mL) with 9 µL ThT (50 µM). Brightfield microscopy was performed simultaneously to evaluate aggregation also for non ThT-active fibrils. The measurements were performed on a Leica DMi8 microscope with 10x air objective and equipped with a Leica MC170 HD camera with a filter setting λem = 527/30 nm upon excitation at λex = 480/40 nm) and processed with the Leica LASX software. To quantify size and number of microscopic aggregation of particles > 10 µm^2 at least 3 independently measured images were analyzed via the 3D object counter analysis tool of ImageJ, v 1.53f51. Sum–frequency generation. The SFG experiments were carried out with a femtosecond Ti: Sapphire amplified laser system (Spitfire Ace, Spectra–Physics, 800 nm, 40 fs, 1 kHz) with 5 W output power. We used 2 W to pump an optical parametric amplifier (TOPAS, light conversion) with a non–collinear difference frequency generation stage to generate broadband IR pulses. Another 1 W of the laser output passed through an etalon to generate narrowband visible pulses (10 cm^-1). The incident angles of the visible and IR beams were 36° and 41° with respect to the surface normal, respectively. The visible (13 µJ) and IR (5 µJ) pulses were overlapped spatially and temporally at the sample position. Subsequently, the generated SFG pulse was guided into a spectrograph (Acton SP 300i, Princeton Instruments), and detected with an EMCCD (Newton, Andor Technology). To avoid IR absorption of water vapor, we purged N2 for the measurement. All spectra were collected in the ssp (denoting s-, s- and p-polarized SFG, visible and IR, respectively) polarization combination. The spectra were normalized to the non–resonant signal taken from z–cut quartz after subtracting a background spectrum.
Table S8 Summary of aggregate analysis from widefield microscopy measurements (Figure S32). The Number of aggregated peptides, the median size area, average size area
and the cumulative total size area of all particles (> 10 µm2) in an area of 1330 µm × 1330 µm was determined via automated 3D object counting (ImageJ) in triplicate
measurements (Std. Dev.).
Aggregate Std. Dev. Std. Dev. Std. Dev. Std. Dev.
Sequence Abs. Inf. / Std. Dev. / Count Rate / Std. Dev. Number Aggregate Median Area Median Area Average Area Average Area Total Area/ Total Area/ […]

[3] = Fig S8 panels A, C, 3 fields of 1330 µm x 1330 µm
[4] = Fig S8 panels B, D, average aggregate area, 3 fields of 1330 µm x 1330 µm
[5] = Fig S8 panels B, D, median aggregate area, 3 fields of 1330 µm x 1330 µm
[6] = Fig S8 panels B, D, 3 fields of 1330 µm x 1330 µm
[7] = Fig S8 panels B, D, widefield fluorescence microscopy, 3 fields of 1330 µm x 1330 µm

CKIKIQINM [MG2]
Conversion Rate / % [1]: 79% | Conversion Rate / % ([1]; fluorescamine assay): 79%

CKIKIQINMWQ [MG1]
Conversion Rate / % [1]: 91.29% | Conversion Rate / % ([1]; fluorescamine assay): 91.29%

CKIKQII [MG4a]
Avg Area in 3 *(1330 µm *1330 µm) ([2]; Fig S8 panels A, C): 110.6 | Log 10 Number of aggregates in 3 * (1330 µm *1330 µm) ([2]; Fig S8 panels A, C): 1.8789 | Median Area in 3 * (1330 µm *1330 µm) ([2]; Fig S8 panels A, C): 36.476 | log Avg Area in 3 * ( (1330 µm *1330 µm)) ([2]; Fig S8 panels A, C): 2.044 | log Median Area in 3 * ( (1330 µm *1330 µm)) ([2]; Fig S8 panels A, C): 1.562 | log Total Area of all particles in 3 * (1330 µm *1330 µm) ([2]; Fig S8 panels A, C): 3.923 | Number of aggregates in 3 * (1330 µm *1330 µm) [2, 3]: 75.67 | Avg Area in 3 *(1330 µm *1330 µm) [2, 4]: 110.6 | Median Area in 3 * (1330 µm *1330 µm) [2, 5]: 36.476 | Total Area of all particles in 3 * (1330 µm *1330 µm) [2, 6]: 8372.136 | Number of aggregates in 3 * (1330 µm *1330 µm) [2, 7]: 75.67

CKIKQIINMWQ [MG5a / CK17]
Avg Area in 3 *(1330 µm *1330 µm) ([2]; Fig S8 panels A, C): 183.3 | Log 10 Number of aggregates in 3 * (1330 µm *1330 µm) ([2]; Fig S8 panels A, C): 2.289 | Median Area in 3 * (1330 µm *1330 µm) ([2]; Fig S8 panels A, C): 91.75 | log Avg Area in 3 * ( (1330 µm *1330 µm)) ([2]; Fig S8 panels A, C): 2.263 | log Median Area in 3 * ( (1330 µm *1330 µm)) ([2]; Fig S8 panels A, C): 1.963 | log Total Area of all particles in 3 * (1330 µm *1330 µm) ([2]; Fig S8 panels A, C): 4.553 | Number of aggregates in 3 * (1330 µm *1330 µm) [2, 3]: 194.7 | Avg Area in 3 *(1330 µm *1330 µm) [2, 4]: 183.3 | Median Area in 3 * (1330 µm *1330 µm) [2, 5]: 91.75 | Total Area of all particles in 3 * (1330 µm *1330 µm) [2, 6]: 35686.92633 | Number of aggregates in 3 * (1330 µm *1330 µm) [2, 7]: 194.7

CKWKWQW [KB4]
Avg Area in 3 *(1330 µm *1330 µm) ([2]; Fig S8 panels A, C): 95.93 | Log 10 Number of aggregates in 3 * (1330 µm *1330 µm) ([2]; Fig S8 panels A, C): 1.94 | Median Area in 3 * (1330 µm *1330 µm) ([2]; Fig S8 panels A, C): 29.43 | log Avg Area in 3 * ( (1330 µm *1330 µm)) ([2]; Fig S8 panels A, C): 1.982 | log Median Area in 3 * ( (1330 µm *1330 µm)) ([2]; Fig S8 panels A, C): 1.469 | log Total Area of all particles in 3 * (1330 µm *1330 µm) ([2]; Fig S8 panels A, C): 3.921 | Number of aggregates in 3 * (1330 µm *1330 µm) [2, 3]: 87 | Avg Area in 3 *(1330 µm *1330 µm) [2, 4]: 95.93 | Median Area in 3 * (1330 µm *1330 µm) [2, 5]: 29.43 | Total Area of all particles in 3 * (1330 µm *1330 µm) [2, 6]: 8346 | Number of aggregates in 3 * (1330 µm *1330 µm) [2, 7]: 87

CQFQFQF [QBL4]
Avg Area in 3 *(1330 µm *1330 µm) ([2]; Fig S8 panels A, C): 73.07 | Log 10 Number of aggregates in 3 * (1330 µm *1330 µm) ([2]; Fig S8 panels A, C): 1.6596 | Median Area in 3 * (1330 µm *1330 µm) ([2]; Fig S8 panels A, C): 15.07 | log Avg Area in 3 * ( (1330 µm *1330 µm)) ([2]; Fig S8 panels A, C): 1.864 | log Median Area in 3 * ( (1330 µm *1330 µm)) ([2]; Fig S8 panels A, C): 1.178 | log Total Area of all particles in 3 * (1330 µm *1330 µm) ([2]; Fig S8 panels A, C): 3.523 | Number of aggregates in 3 * (1330 µm *1330 µm) [2, 3]: 45.67 | Avg Area in 3 *(1330 µm *1330 µm) [2, 4]: 73.07 | Median Area in 3 * (1330 µm *1330 µm) [2, 5]: 15.07 | Total Area of all particles in 3 * (1330 µm *1330 µm) [2, 6]: 3337 | Number of aggregates in 3 * (1330 µm *1330 µm) [2, 7]: 45.67

CRFRFQF [CN10]
Conversion Rate / % ([1]; fluorescamine assay): 98.13%

CRFRVPF [CN8]
Conversion Rate / % ([1]; fluorescamine assay): 97.05%
